Experimental data taken from publication PMC6073232 (International Journal of Molecular Sciences, 2018).

What was measured:
TRESK (K2P18.1) [1] = molecular target: T1, TRESK (K2P18.1) (Mus musculus, UniProt Q6VV64); assay: whole-cell patch clamp (abstract prints IC50 […]); assay type: cell-based
T1 construct: gene Kcnk18; mouse TRESK (NM_207261) in HEK-293 cells
T1 sequence (Q6VV64 1-394): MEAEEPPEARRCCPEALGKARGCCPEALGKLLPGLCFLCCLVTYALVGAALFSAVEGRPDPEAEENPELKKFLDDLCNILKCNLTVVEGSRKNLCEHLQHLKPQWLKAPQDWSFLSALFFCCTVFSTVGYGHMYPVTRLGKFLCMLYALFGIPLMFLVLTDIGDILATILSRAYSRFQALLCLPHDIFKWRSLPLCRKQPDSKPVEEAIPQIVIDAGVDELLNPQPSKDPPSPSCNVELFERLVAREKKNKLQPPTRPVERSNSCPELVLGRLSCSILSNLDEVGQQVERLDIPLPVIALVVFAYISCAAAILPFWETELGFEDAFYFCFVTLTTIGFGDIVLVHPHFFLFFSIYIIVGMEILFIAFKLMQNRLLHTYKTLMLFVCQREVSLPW

TRESK (K2P18.1) [2] = molecular target: T1, TRESK (K2P18.1); assay: whole-cell patch clamp, % inhibition at […]; assay type: cell-based

Structure (SMILES)	IC50 (TRESK (K2P18.1) [1])	inhibition at 20 µM (TRESK (K2P18.1) [2])
COC(=O)C1=C(C)NC(C)=C(C(=O)OC)C1c1ccccc1[N+](=O)[O-] [nifedipine]	63.8 µM	
COc1ccc(CCN(C)CCCC(C#N)(c2cc(OC)c(OC)c(OC)c2)C(C)C)cc1OC (centres unmarked) [D600]		45 ± 6%
